Measurements published in patent US11466025B2, “Thienopyridine derivatives containing unsaturated aliphatic olefinic bond, preparation method and use thereof” (Tianjin Institute of Pharmaceutical Research Co., Ltd., priority 2017, dated 2022).
Like-named read-outs stand apart in the source and are kept apart here.

Assays:
beagle dogs = assay: Safety evaluation in multiple dosing (14 days); format: in vivo; conditions: for ECG examinations, hematological tests and serum biochemical tests: day 7 and 14
Protocol: Safety Evaluation of Compounds I-1 and I-2 in Multiple Dosing:
The test consisted of a physiological control group, a solvent control group, and two administration groups, with 4 animals in each group, half of which were male and the other half of which were female. Two dose groups, 100 mg/kg group and 300 mg/kg group, were set for the test compounds, to which the test compounds at doses of 100 mg/kg and 300 mg/kg were intragastrically administered respectively over 14 days. The solvent control group was administered with an equal volume of the blank solvent. Animals were daily observed for various conditions during the test. ECG examinations were performed before administration, and 7 and 14 days after administration. Hematological and blood biochemical tests were performed before administration and 7 and […] after administration.

[1] = tested on: platelet aggregation induced by ADP; assay: Test of inhibitory effect of compounds on platelet aggregation in rats (ex vivo, ADP-induced, after intragastric administration); design: species or system SD rats; conditions: for Inhibition rate (%): platelet aggregation, control = 100%; for Inhibition rate (%) / Aggregation rate (%): rats; for Aggregation rate (%): 2 h after administration, ADP 20 uM
Protocol: Test of Inhibitory Effect of Compounds on Platelet Aggregation in Rats Healthy male SD rats were selected and randomly divided into solvent control group, positive drug control group and test compound group. Intragastric administration was carried out, with the administration volume being 10 ml/kg˜bw. […] The platelet count was adjusted to 5×10^8 cells/ml with PPP.

[2] = 1 μM
Protocol: Plasma samples (double sample) containing 1 μM of the compounds of the present invention, clopidogrel hydrogen sulfate (LBGL), 2-oxo product (2-Oxo) were prepared from human blank plasma, and incubated at 37° C. 50 μL of the above incubated plasma samples were taken at different time points, and 100 μL of precipitant (acetonitrile:methanol=7:3) and 50 μL of internal standard were added. The mixture was vortexed for 1 min and centrifuged for 10 min. 100 μL of the supernatant was taken into an inner inserted tube, centrifuged for 5 min, and injected for LC-MS/MS analysis.
Preparation of blank control sample (PPT-0): 100 μL of frozen human blank plasma was taken, to which 195 μL of acetonitrile and 100 μL of internal standard were added, followed by 5 μL of the compound of the present invention, clopidogrel or 2-oxo product (20 μM). The mixture was vortexed for 1 min and centrifuged for 10 min. 100 μL of the supernatant was taken into an inner inserted tube, centrifuged for 5 min, and injected for LC-MS/MS analysis.

[3] = Stability of the compounds under high temperature, high humidity and light (influence factors, HPLC); format: physicochemical
Protocol: Study on the Stability of the Compounds:
The stability of the compound is investigated under the conditions of high temperature, high humidity and light. The testing conditions for high performance liquid chromatography (HPLC) are as follows:
Instrument: high performance liquid chromatography;
Column: Inertsil C8-3, 150 mm×4.6 mm, 5 μm;
Mobile phase A: acetonitrile; mobile phase B: 5 mM ammonium dihydrogen phosphate;
Detection wavelength: 220 nm;
Column temperature: 35° C.;
Sample chamber temperature: 25° C.;
Column: Agilent Poroshell 120 EC-C18, 100 mm×4.6 mm, 2.7 μm;
Column temperature: 30° C.;
Other conditions are the same as that in Method 1.
Samples relating to Compound I-2 were tested using Method 2 and other samples were tested using Method 1. The test results of the influence factors are shown in Table 14, and the test results of the light-avoidance stability test are shown in Table 15.

[4] = intragastric 100 mg/kg over 14 days
[5] = intragastric 300 mg/kg over 14 days
[6] = 5 days, High temperature 60° C.
[7] = 10 days, High temperature 60° C.
[8] = 30 days, High temperature 60° C.

SMILES: C/C=C/C(=O)Oc1cc2c(s1)CCN([C@H](C(=O)OC)c1ccccc1Cl)C2 [Compound I-1, Methyl (S,E)-2-(2-chlorophenyl)-2-(2-(2-butenoyloxy)-6,7-dihydrothieno[3,2-c]pyridin-5(4H)-yl)-acetate]
- Drug-related toxicity (appearance, mental activity, appetite, hematological, blood biochemical, ECG) (beagle dogs; continuous intragastrical administration for 14 days): no significant drug-related toxicity
- Activities, mental condition and diet (beagle dogs; [4]): normal activities, good mental condition, and normal diet
- ECG examinations, hematological tests and serum biochemical tests (beagle dogs; [4]): no obvious abnormalities
- Activities, mental condition and diet (beagle dogs; [5]): normal activities, good mental condition, and normal diet
- ECG examinations, hematological tests and serum biochemical tests (beagle dogs; [5]): no obvious abnormalities
- ED50 ([1]; Rattus norvegicus, Platelet, po): 1 mg/kg
- Inhibition rate (%) ([1]; intragastric 0.5 mg/kg): 22.4%
- Inhibition rate (%) ([1]; intragastric 1 mg/kg): 50.2%
- Inhibition rate (%) ([1]; intragastric 2 mg/kg): 77.0%
- Aggregation rate (%) ([1]; intragastric 0.5 mg/kg): 46.6 ± 8.1%
- Aggregation rate (%) ([1]; intragastric 1 mg/kg): 29.9 ± 8.7 %
- Aggregation rate (%) ([1]; intragastric 2 mg/kg): 13.8 ± 11.7 %
- 2-Oxo metabolite concentration in human plasma ([2]; 0 min): 0.0412 µM
- 2-Oxo metabolite in human plasma, % ([2]; 0 min): 4.34%
- Concentration of incubated compound in human plasma ([2]; 0 min): 950 nM
- Incubated compound in human plasma, % ([2]; 0 min): 100%
- Generation of 2-oxo (2-Oxo) product in human plasma [2]: rapidly generate 2-oxo products
- 2-Oxo metabolite concentration in human plasma ([2]; 5 min): 0.0807 µM
- 2-Oxo metabolite in human plasma, % ([2]; 5 min): 8.49%
- Concentration of incubated compound in human plasma ([2]; 5 min): 872 nM
- Incubated compound in human plasma, % ([2]; 5 min): 91.7%
- 2-Oxo metabolite concentration in human plasma ([2]; 10 min): 0.143 µM
- 2-Oxo metabolite in human plasma, % ([2]; 10 min): 15.1%
- Concentration of incubated compound in human plasma ([2]; 10 min): 782 nM
- Incubated compound in human plasma, % ([2]; 10 min): 82.3%
- 2-Oxo metabolite concentration in human plasma ([2]; 20 min): 0.195 µM
- 2-Oxo metabolite in human plasma, % ([2]; 20 min): 20.5%
- Concentration of incubated compound in human plasma ([2]; 20 min): 575 nM
- Incubated compound in human plasma, % ([2]; 20 min): 60.5%
- 2-Oxo metabolite concentration in human plasma ([2]; 30 min): 0.198 µM
- 2-Oxo metabolite in human plasma, % ([2]; 30 min): 20.8%
- Concentration of incubated compound in human plasma ([2]; 30 min): 425 nM
- Incubated compound in human plasma, % ([2]; 30 min): 44.7%
- 2-Oxo metabolite concentration in human plasma ([2]; 45 min): 0.167 µM
- 2-Oxo metabolite in human plasma, % ([2]; 45 min): 17.5%
- Concentration of incubated compound in human plasma ([2]; 45 min): 266 nM
- Incubated compound in human plasma, % ([2]; 45 min): 28.0%
- 2-Oxo metabolite concentration in human plasma ([2]; 60 min): 0.130 µM
- 2-Oxo metabolite in human plasma, % ([2]; 60 min): 13.6%
- Concentration of incubated compound in human plasma ([2]; 60 min): 174 nM
- Incubated compound in human plasma, % ([2]; 60 min): 18.3%
- 2-Oxo metabolite concentration in human plasma ([2]; 90 min): 0.0535 µM
- 2-Oxo metabolite in human plasma, % ([2]; 90 min): 5.63%
- Concentration of incubated compound in human plasma ([2]; 90 min): 52.2 nM
- Incubated compound in human plasma, % ([2]; 90 min): 5.49%
- 2-Oxo metabolite concentration in human plasma ([2]; 120 min): 0.0224 µM
- 2-Oxo metabolite in human plasma, % ([2]; 120 min): 2.35%
- Concentration of incubated compound in human plasma ([2]; 120 min): 16.2 nM
- Incubated compound in human plasma, % ([2]; 120 min): 1.70%
- 2-Oxo metabolite concentration in human plasma ([2]; 150 min): 0.00857 µM
- 2-Oxo metabolite in human plasma, % ([2]; 150 min): 0.902%
- Concentration of incubated compound in human plasma ([2]; 150 min): 5.31 nM
- Incubated compound in human plasma, % ([2]; 150 min): 0.558%
- 2-Oxo metabolite concentration in human plasma ([2]; 180 min): 0.00397 µM
- 2-Oxo metabolite in human plasma, % ([2]; 180 min): 0.418%
- Concentration of incubated compound in human plasma ([2]; 180 min): 2.19 nM
- Incubated compound in human plasma, % ([2]; 180 min): 0.231%
- 2-Oxo metabolite concentration in human plasma ([2]; 240 min): 0 µM
- 2-Oxo metabolite in human plasma, % ([2]; 240 min): 0%
- Concentration of incubated compound in human plasma ([2]; 240 min): 0 nM
- Incubated compound in human plasma, % ([2]; 240 min): 0%
- 2-Oxo metabolite concentration in human plasma ([2]; 300 min): 0 µM
- 2-Oxo metabolite in human plasma, % ([2]; 300 min): 0%
- Concentration of incubated compound in human plasma ([2]; 300 min): 0 nM
- Incubated compound in human plasma, % ([2]; 300 min): 0%
- 2-Oxo metabolite concentration in human plasma ([2]; 360 min): 0 µM
- 2-Oxo metabolite in human plasma, % ([2]; 360 min): 0%
- Concentration of incubated compound in human plasma ([2]; 360 min): 0 nM
- Incubated compound in human plasma, % ([2]; 360 min): 0%
- Chromatographic purity % ([3]; 0 day, 0point): 99.612%
- Individual maximum impurity % ([3]; 0 day, 0point): 0.236%
- Chromatographic purity % ([3]; 5 days, High humidity RH92.5%): 99.583%
- Individual maximum impurity % ([3]; 5 days, High humidity RH92.5%): 0.235%
- Chromatographic purity % [3, 6]: 99.595%
- Individual maximum impurity % [3, 6]: 0.234%
- Chromatographic purity % ([3]; 5 days, Light 4500 ± 500 LX): 99.539%
- Individual maximum impurity % ([3]; 5 days, Light 4500 ± 500 LX): 0.287%
- Chromatographic purity % ([3]; 10 days, High humidity RH92.5%): 99.578%
- Individual maximum impurity % ([3]; 10 days, High humidity RH92.5%): 0.234%
- Chromatographic purity % [3, 7]: 99.596%
- Individual maximum impurity % [3, 7]: 0.232%
- Chromatographic purity % ([3]; 10 days, Light 4500 ± 500 LX): 99.502%
- Individual maximum impurity % ([3]; 10 days, Light 4500 ± 500 LX): 0.313%
- Chromatographic purity % ([3]; 30 days, High humidity RH92.5%): 99.544%
- Individual maximum impurity % ([3]; 30 days, High humidity RH92.5%): 0.235%
- Chromatographic purity % [3, 8]: 99.570%
- Individual maximum impurity % [3, 8]: 0.237%
- Chromatographic purity % ([3]; 30 days, Light 4500 ± 500 LX): 98.868%
- Individual maximum impurity % ([3]; 30 days, Light 4500 ± 500 LX): 0.698%
